According to US20080182859A1 (Curis, Inc., priority 2006, published 2008):
Structures can show the parent of a compound that is named as a salt.

What was measured:
Assay type in all cases: cell-based
sonic hedgehog pathway [1] = experiment: Hedgehog pathway Gli-luciferase reporter assay, S12 cells; conditions: S12 mouse embryonic mesenchymal cells, read-out: Mouse S12 Avg. EC50
Source text: Mouse (TM3: mouse Leydig cells; S12: mouse embryonic mesenchymal cells) and human (Daoy: human medulloblastoma cell; HepM: human embryonic palatal mesenchymal cell) cell lines are used to screen small molecules for their ability to modulate the activity of the sonic hedgehog pathway (Table 1, Table 2, and Table 3). Stable hedgehog pathway reporter cell lines are established by specific antibiotic selection following transfection of a reporter plasmid containing a luciferase gene located directly downstream from the gli promoter. Consequently, any observable changes in cellular luciferase activity may be attributed to changes in sonic hedgehog pathway activity in mouse and human cells, respectively, since gli is the major by-product of this pathway. To calculate activity, we generate an eleven point dose curve for each compound using 1:3 dilutions in 96 well assay plates. Each plate tested also contains low and high control to establish maximal pathway activation so to establish/compare a percentage activation of each tested compound (AMAX) on respective plates. Also we calculate EC50 values, or a concentration where the pathway will be exactly 50% activated, for each tested compound to determine potency. In these cell lines, compounds that register >20% AMAX values are considered active.
Stable hedgehog pathway reporter cell lines are established following specific antibiotic selection following transfection of a reporter plasmid In short, typically cells are plated in MicroTiter-plates at 10,000-20,000 cells per well, in growth media (containing 10%-20% FBS). After 48-72 hrs (HGL and DGL respectively) the media in the assay plates is switched to low-serum containing media (0.5% FBS). At that time compounds are added (at 1-5 μM) to the assay plates, in the presence or absence of hedgehog protein (octyl-modified version; 1-5 ng/ml). After another 24 hrs of incubation, the media from the assay plates is discarded and replaced with luciferase assay-mix. Subsequently, plates are incubated at RT for ˜15-30 mins and then read in a luminometer. [note: addition of the Hedgehog protein, although not critical, will sensitize the assay allowing the identification of weak actives].

sonic hedgehog pathway [2] = experiment: Human hedgehog reporter assay Daoy-GliLuc (DGL); conditions: Daoy human medulloblastoma cells, Gli-luciferase reporter
Outline: (§1)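 Luminescence read-out of gli-promoter luciferase in stably transfected cells; 11-point 1:3 dose curves, 24 h compound exposure in 0.5% FBS, ± octyl-modified Hh protein 1–5 ng/ml. AMAX as % of plate low/high controls; EC50 from curve; >20% AMAX counted active.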

sonic hedgehog pathway [3] = experiment: Hedgehog pathway Gli-luciferase reporter assay, TM3 cells; conditions: TM3 mouse Leydig cells
Outline: as §1

sonic hedgehog pathway [4] = experiment: Human hedgehog reporter assay HEPM-GliLuc (HGL); conditions: HepM human embryonic palatal mesenchymal cells, Gli-luciferase reporter
Outline: as §1

[5] = read-out: Human Daoy (Gli-Luc) Avg. EC50

EC50 (sonic hedgehog pathway [2]; [5]) | EC50 (sonic hedgehog pathway [3]) | EC50 (sonic hedgehog pathway [2]; read-out: Daoy Avg. EC50) | SMILES | EC50 (sonic hedgehog pathway [1]) | EC50 (sonic hedgehog pathway [4])
< 50 nM |  |  | CN[C@H]1CC[C@@H](N(Cc2cc(-c3ccc(CS(C)(=O)=O)cc3)ccc2OC)C(=O)c2sc3c(F)ccc(F)c3c2Cl)CC1 [Compound 369, 3-Chloro-4,7-difluoro-benzo[b]thiophene-2-carboxylic acid (4′-methanesulfonylmethyl-4-methoxy-biphenyl-3-ylmethyl)-(4-methylamino-cyclohexyl)-amide hydrochloride] | < 50 nM | 
< 50 nM |  |  | CN[C@H]1CC[C@@H](N(Cc2cc(-c3ccc(N(C)S(C)(=O)=O)cc3)ccc2OC)C(=O)c2sc3c(F)ccc(F)c3c2Cl)CC1 [Compound 371, 3-Chloro-4,7-difluoro-benzo[b]thiophene-2-carboxylic acid [4′-(methanesulfonyl-methyl-amino)-4-methoxy-biphenyl-3-ylmethyl]-(4-methylamino-cyclohexyl)-amide hydrochloride] | < 50 nM | 
< 50 nM |  |  | CNC1CCC(N(Cc2cc(-c3ccc(SC)cc3)ccc2OC)C(=O)c2sc3c(F)ccc(F)c3c2Cl)CC1 (stereo not drawn) [Compound 373, 3-Chloro-4,7-difluoro-benzo[b]thiophene-2-carboxylic acid (4-methoxy-4′-methylsulfanyl-biphenyl-3-ylmethyl)-(4-methylamino-cyclohexyl)-amide hydrochloride] | < 50 nM | 
< 50 nM |  |  | COc1ccc(-c2ccncc2)cc1CN(C(=O)c1sc2c(F)ccc(F)c2c1Cl)[C@H]1CC[C@@H](N)CC1 [Compound 375, N-((1r,4r)-4-aminocyclohexyl)-3-chloro-4,7-difluoro-N-(2-methoxy-5-(pyridin-4-yl)benzyl)benzo[b]thiophene-2-carboxamide hydrochloride] | < 50 nM | 
< 50 nM |  |  | CN[C@H]1CC[C@@H](N(Cc2cc(-c3cccc([S+](C)[O-])c3)ccc2OC)C(=O)c2sc3c(F)ccc(F)c3c2Cl)CC1 (stereo partly drawn) [Compound 376, 3-Chloro-4,7-difluoro-benzo[b]thiophene-2-carboxylic acid (3′-methanesulfinyl-4-methoxy-biphenyl-3-ylmethyl)-(4-methylamino-cyclohexyl)-amide trifluoroacetate] | < 50 nM | 
< 50 nM |  |  | CN[C@H]1CC[C@@H](N(Cc2cc(-c3ccc([S+](C)[O-])cc3)ccc2OC)C(=O)c2sc3c(F)ccc(F)c3c2Cl)CC1 (stereo partly drawn) [Compound 377, 3-Chloro-4,7-difluoro-benzo[b]thiophene-2-carboxylic acid (4′-methanesulfinyl-4-methoxy-biphenyl-3-ylmethyl)-(4-methylamino-cyclohexyl)-amide trifluoroacetate] | < 50 nM | 
< 50 nM |  |  | CNC1CCC(N(Cc2cc(-c3cccnc3F)ccc2OC)C(=O)c2sc3c(F)ccc(F)c3c2Cl)CC1 (stereo not drawn) [Compound 378, 3-Chloro-4,7-difluoro-benzo[b]thiophene-2-carboxylic acid [5-(2-fluoro-pyridin-3-yl)-2-methoxy-benzyl]-(4-methylamino-cyclohexyl)-amide] | < 50 nM | 
< 50 nM |  |  | CNC1CCC(N(Cc2cc(-c3ccc(F)nc3)ccc2OC)C(=O)c2sc3cccc(F)c3c2Cl)CC1 (stereo not drawn) [Compound 382, 3-Chloro-4-fluoro-benzo[b]thiophene-2-carboxylic acid [5-(6-fluoro-pyridin-3-yl)-2-methoxy-benzyl]-(4-methylamino-cyclohexyl)-amide] | < 50 nM | 
 | 1000 to 2500 nM | 250 to 1000 nM | CCOc1ccc(-c2ccc(NC)nc2)cc1CN(C(=O)c1sc2ccccc2c1Cl)[C@H]1CC[C@H](NC)CC1 [Compound 399, 3-Chloro-benzo[b]thiophene-2-carboxylic acid [2-ethoxy-5-(6-methylamino-pyridin-3-yl)-benzyl]-(4-methylamino-cyclohexyl)-amide dihydrochloride] |  | 1000 to 2500 nM
 | 1000 to 2500 nM | 50 to 250 nM | CCOc1ccc(-c2cnc(NC)nc2)cc1CN(C(=O)c1sc2ccccc2c1Cl)[C@H]1CC[C@H](NC)CC1 [Compound 402, 3-Chloro-benzo[b]thiophene-2-carboxylic acid [2-ethoxy-5-(2-methylamino-pyrimidin-5-yl)-benzyl]-(4-methylamino-cyclohexyl)-amide dihydrochloride] |  | 250 to 1000 nM
 | < 50 nM | 50 to 250 nM | CN[C@H]1CC[C@H](N(Cc2cc(-c3ccc(C(C)=O)cc3)ccc2F)C(=O)c2sc3ccccc3c2Cl)CC1 [Compound 419, 3-Chloro-benzo[b]thiophene-2-carboxylic acid (4′-acetyl-4-fluoro-biphenyl-3-ylmethyl)-(4-methylamino-cyclohexyl)-amide trifluoroacetate] |  | 250 to 1000 nM
 | < 50 nM | < 50 nM | CN[C@H]1CC[C@H](N(Cc2cc(-c3ccc(C(=O)C(F)(F)F)cc3)ccc2F)C(=O)c2sc3ccccc3c2Cl)CC1 [Compound 424, 3-Chloro-benzo[b]thiophene-2-carboxylic acid [4-fluoro-4′-(2,2,2-trifluoro-acetyl)-biphenyl-3-ylmethyl]-(4-methylamino-cyclohexyl)-amide trifluoroacetate] |  | 250 to 1000 nM

Continued, molecule first:

SMILES | EC50 (sonic hedgehog pathway [2]; [5]) | EC50 (sonic hedgehog pathway [3]) | EC50 (sonic hedgehog pathway [2]; read-out: Daoy Avg. EC50) | EC50 (sonic hedgehog pathway [1]) | EC50 (sonic hedgehog pathway [4])
CN[C@H]1CC[C@@H](N(Cc2cc(-c3ccc(NS(C)(=O)=O)cc3)ccc2OC)C(=O)c2sc3c(F)ccc(F)c3c2Cl)CC1 [Compound 370, 3-Chloro-4,7-difluoro-benzo[b]thiophene-2-carboxylic acid (4′-methanesulfonylamino-4-methoxy-biphenyl-3-ylmethyl)-(4-methylamino-cyclohexyl)-amide hydrochloride] | < 50 nM |  |  | < 50 nM | 
CNC1CCC(N(Cc2cc(-c3cccc(SC)c3)ccc2OC)C(=O)c2sc3c(F)ccc(F)c3c2Cl)CC1 (stereo not drawn) [Compound 372, 3-Chloro-4,7-difluoro-benzo[b]thiophene-2-carboxylic acid (4-methoxy-3′-methylsulfanyl-biphenyl-3-ylmethyl)-(4-methylamino-cyclohexyl)-amide hydrochloride] | < 50 nM |  |  | < 50 nM | 
CN[C@H]1CC[C@@H](N(Cc2cc(-c3cc[n+]([O-])cc3)ccc2OC)C(=O)c2sc3c(F)ccc(F)c3c2Cl)CC1 [Compound 374, 4-(3-((3-chloro-4,7-difluoro-N-((1s,4s)-4-(methylamino)cyclohexyl)benzo[b]thiophene-2-carboxamido)methyl)-4-methoxyphenyl)pyridine 1-oxide] | < 50 nM |  |  | < 50 nM | 
CNC1CCC(N(Cc2cc(-c3ccc(F)nc3)ccc2OC)C(=O)c2sc3c(F)ccc(F)c3c2Cl)CC1 (stereo not drawn) [Compound 379, 3-Chloro-4,7-difluoro-benzo[b]thiophene-2-carboxylic acid [5-(6-fluoro-pyridin-3-yl)-2-methoxy-benzyl]-(4-methylamino-cyclohexyl)-amide] | < 50 nM |  |  | < 50 nM | 
CNC1CCC(N(Cc2cc(-c3cncc(F)c3)ccc2OC)C(=O)c2sc3c(F)ccc(F)c3c2Cl)CC1 (stereo not drawn) [Compound 380, 3-Chloro-4,7-difluoro-benzo[b]thiophene-2-carboxylic acid [5-(5-fluoro-pyridin-3-yl)-2-methoxy-benzyl]-(4-methylamino-cyclohexyl)-amide] | < 50 nM |  |  | < 50 nM | 
CN[C@H]1CC[C@@H](N(Cc2cc(-c3cccnc3F)ccc2OC)C(=O)c2sc3cccc(F)c3c2Cl)CC1 [Compound 381] | < 50 nM |  |  | < 50 nM | 
CN[C@H]1CC[C@@H](N(Cc2cc(-c3cncc(F)c3)ccc2OC)C(=O)c2sc3cccc(F)c3c2Cl)CC1 [Compound 383, 3-chloro-4-fluoro-N-(5-(5-fluoropyridin-3-yl)-2-methoxybenzyl)-N-((1s,4s)-4-(methylamino)cyclohexyl)benzo[b]thiophene-2-carboxamide] | < 50 nM |  |  | < 50 nM | 
CN[C@H]1CC[C@@H](N(Cc2cc(-c3ccccc3)ccc2OC)C(=O)c2sc3ccccc3c2Cl)CC1 [Compound R3, 3-Chloro-benzo[b]thiophene-2-carboxylic acid (4-methoxy-biphenyl-3-ylmethyl)-(4-methylamino-cyclohexyl)-amide hydrochloride] |  | < 50 nM | 50 to 250 nM |  | 50 to 250 nM
